According to patent EP4537820A1, “COMPOUND AND COMBINATIONS COMPRISING SAID COMPOUND TO IMPROVE IMMUNE RESPONSE” (Institut Gustave-Roussy, priority 2023, dated 2025):
pIC50: −log10 of the molar value.

Tests used:
[1] = system: human constitutive 20S proteasome (h20S); assay: Peptide degradation assay with Fluorescamine (KH-52), 20S alone; format: biochemical; details: different concentrations tested, 37°C
Procedure: Degradation of the 52 amino acid peptide KH-52: […], Boulpicante et al.) by the 20S proteasome was followed by amino-acid group generation using Fluorescamine (#F9015, Sigma-Aldrich). The peptide substrate was incubated at 100µM with 25nM 20S, with or without 160nM REGγ and with different concentration of the tested compounds or DMSO. Assays were performed in 100µL in phosphate buffer (pH 6.8) and incubated at 37°C in a water bath for 8 hours. After 4, 6 and 8 hours, 22µL of sample were retrieved and added to 88µL of phosphate buffer before being stored at - 20°C prior to revelation. For the revelation, samples were thawed and filtered in a centrifuge 20min at 4°C 1kDa filters (#OD003C34, Pall Corporation). To avoid any amino group contamination, filtered were washed in phosphate buffer before use. 20µL of filtered-sample were plated in triplicates in a black 96-wells plate (#237108, Thermo Scientific) and 10µL of fluorescamine (1mg/mL, in 100% acetone) was added to the samples. The plate was placed on agitation for 1min before the reaction was stopped by adding 200µL of water to each well. The fluorescence intensity was measured using a FluoSTAR plate reader (BMG Labtech) with excitation wavelength at 355nm and emission wavelength at 460nm.
These findings were established through both in vitro degradation assays and T cell experiments. […]

MCA REGγ KO cells = assay: MTT assay; format: cell-based; details: Mus musculus, 24-hour treatment, read-out: IC50 (cell viability)
Procedure: (§1) 2,5×10^4 of MCA cells or 5×10^4 of MCA c13 cells were plated in quadruplicates in clear 96-well plates and incubated overnight. The next day, cells were with various concentration of the tested compounds for 24h. After treatment, media was carefully removed before adding 50µL of new media and 10µL of tetrazolium salt solution (5mg/mL in PBS) and homogeneizing the well by pipetting up and down. The plate was then incubated for 2 hours at 37°C. After incubation, plate was centrifuged 5min at 1500rpm before adding 150µL of DMSO to each well to solubilize the formazan cristals. The plate was incubated on agitation for 10min and absorbance was read at 544nm using a EL808 (Biotek) plate reader.
(§2) To assess the efficacy of compound 58 against tumor cell lines, inventors initially aimed to determine its IC50 values in both mouse and human cell lines. They utilized an MTT assay to ascertain these values for mouse MCA fibrosarcoma and human A375 melanoma cell lines. Specifically, they treated 2.5 × 10^4 MCA WT or MCA REGγ KO cells and 5 × 10^4 human A375 WT or A375 REGγ KO cells with varying concentrations of compound 58 for a 24-hour duration.

[2] = system: MCA WT cells (MCA fibrosarcoma); assay: MTT assay; format: cell-based; details: Mus musculus, 24-hour treatment, read-out: IC50 (cell viability)
Procedure: as §1, §2

A375 REGγ KO cells = assay: MTT assay; format: cell-based; details: Homo sapiens, A-375, 24-hour treatment, read-out: IC50 (cell viability)
Procedure: as §1, §2

[3] = system: A375 WT cells (A375 melanoma); assay: MTT assay; format: cell-based; details: Homo sapiens, A-375, 24-hour treatment, read-out: IC50 (cell viability)
Procedure: as §1, §2

REGγ = REGγ (Homo sapiens, UniProt P61289); assay: Thermal Shift Assay (nanoDSF) with REGγ; format: binding; details: REGγ 500nM, compound at 40X (20µM, 0,4% DMSO)
REGγ, sequence (P61289 whole entry): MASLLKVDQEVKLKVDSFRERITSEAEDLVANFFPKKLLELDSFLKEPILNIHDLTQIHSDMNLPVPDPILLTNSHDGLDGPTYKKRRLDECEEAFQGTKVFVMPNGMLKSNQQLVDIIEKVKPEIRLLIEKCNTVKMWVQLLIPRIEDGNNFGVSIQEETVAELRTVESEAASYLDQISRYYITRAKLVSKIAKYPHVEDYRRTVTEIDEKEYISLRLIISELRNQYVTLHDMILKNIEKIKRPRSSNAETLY
Procedure: Thermal shift assay was carried out with nano differential scanning fluorimetry (nanoDSF) using the Tycho NT.6 from Nanotemper and was performed at the I2BC platform (Gif-sur-Yvette). Samples were prepared in a final volume of 25µL in a 96-well plate prior to be loaded on the Tycho capillaries. Proteins were diluted in activity buffer (20mM Tris-HCl pH 7.4 and 20mM NaCl). After optimisation, REGγ concentration was set to 500nM and 20S concentration to 50nM. Compounds concentrations were determined as ratios to protein concentration and to stay below 0,5% of DMSO; accordingly, compounds with REGγ were tested at 40X (20µM, 0,4% DMSO) and at 100X (5µM, 0,1% DMSO) with 20S. A thermal ramp was applied from 20 to 95°C and fluorescence was followed at 350nm and 330 nm, measuring intrinsic fluorescence of the proteins from tryptophan and tyrosine residues. Binding was detected as a shift in the inflection temperature (Ti) compared to the DMSO control.
To assess the efficacy of molecule 58 in directly binding to REGγ, inventors conducted a thermal shift assay (TSA). TSA leverages the property of proteins to undergo unfolding at specific temperatures, and the interaction with a ligand can alter the thermal stability, leading to a shift in the unfolding temperature. In their study, inventors examined how the compound 58 interacted with REGγ and monitored the change in melting temperature (ΔTm).

- rate of peptide bond hydrolysis of KH-52 [1]: no impact
- pIC50 [2]: 4.41
- pIC50 (A375 REGγ KO cells): 3.31
- pIC50 [3]: 3.83
- change in melting temperature (ΔTm) (REGγ): substantial increase in ΔTm
SMILES: Cc1ccc(N=Nc2ccc(C)cc2NC(=O)Nc2ccccc2F)cc1 [compound 58]
- pIC50 (MCA REGγ KO cells): 4.00
